# Calls of active or inactive are those of the source. The rule behind the calls is not given here.
# Tests used:
# Human rhinovirus sp. [1] = experiment: Antirhinoviral activity against Human Rhinovirus R2; type: functional
# Human rhinovirus sp. [2] = experiment: Antirhinoviral activity against Human Rhinovirus R25; type: functional
# Human rhinovirus sp. [3] = experiment: Antirhinoviral activity against Human Rhinovirus R6; Not active; type: functional, organism-based
# Human rhinovirus sp. [4] = experiment: Antirhinoviral activity against Human Rhinovirus R15; type: functional
# Human rhinovirus sp. [5] = experiment: Antirhinoviral activity against Human Rhinovirus R41; Not active; type: functional, organism-based
# Human rhinovirus sp. [6] = experiment: Antirhinoviral activity against Human Rhinovirus R67; type: functional
# Human rhinovirus sp. [7] = experiment: Antirhinoviral activity against Human Rhinovirus R50; type: functional
# Human rhinovirus sp. [8] = experiment: Antirhinoviral activity against Human Rhinovirus R89; type: functional
# Human rhinovirus sp. [9] = experiment: Antirhinoviral activity against Human Rhinovirus R86; type: functional
# Human rhinovirus sp. [10] = experiment: Antirhinoviral activity against Human Rhinovirus R22; type: functional
# Human rhinovirus sp. [11] = experiment: Antirhinoviral activity against Human Rhinovirus R1A; type: functional
# Human rhinovirus sp. [12] = experiment: Antirhinoviral activity against Human Rhinovirus R21; type: functional
# Human rhinovirus sp. [13] = experiment: Antirhinoviral activity against Human Rhinovirus R30; type: functional
# Human rhinovirus sp. [14] = experiment: Antirhinoviral activity against Human Rhinovirus R14; Not active; type: functional, organism-based
# Human rhinovirus sp. [15] = experiment: Antirhinoviral activity against Human Rhinovirus R1B; type: functional
# Human rhinovirus sp. [16] = experiment: Antirhinoviral activity against Human Rhinovirus serotypes R1A, R1B, R2, R6, R14, R15, R21, R22, R25, R30, R41, R50, R67, R86 and R89.; type: functional
# Human rhinovirus sp. [17] = experiment: Antirhinoviral activity against Human Rhinovirus serotypes R1A, R1B, R2, R6, R14, R15, R21, R22, R25, R30, R41, R50, R67, R86 and R89; Inactive against HRV-6, 14, 86; type: functional, organism-based
# [18] = Partition coefficient (logP); type: physicochemical; settings: octanol/water
# Human rhinovirus sp. [19] = experiment: Antirhinoviral activity against Human Rhinovirus serotypes R1A, R1B, R2, R6, R14, R15, R21, R22, R25, R30, R41, R50, R67, R86 and R89; Inactive against HRV-86; type: functional, organism-based
# Human rhinovirus sp. [20] = experiment: Antirhinoviral activity against Human Rhinovirus serotypes R1A, R1B, R2, R6, R14, R15, R21, R22, R25, R30, R41, R50, R67, R86 and R89; type: functional
# Human rhinovirus sp. [21] = experiment: Antirhinoviral activity against Human Rhinovirus R14; type: functional
# Human rhinovirus sp. [22] = experiment: Antirhinoviral activity against Human Rhinovirus R86; Not active; type: functional, organism-based
# Human rhinovirus sp. [23] = experiment: Antirhinoviral activity against Human Rhinovirus R6; type: functional
# Human rhinovirus sp. [24] = experiment: Antirhinoviral activity against Human Rhinovirus R41; type: functional
SMILES,MIC (Human rhinovirus sp. [1]) [µM],MIC (Human rhinovirus sp. [2]) [µM],MIC (Human rhinovirus sp. [4]) [µM],MIC (Human rhinovirus sp. [6]) [µM],MIC (Human rhinovirus sp. [7]) [µM],MIC (Human rhinovirus sp. [8]) [µM],MIC (Human rhinovirus sp. [9]) [µM],MIC (Human rhinovirus sp. [10]) [µM],MIC (Human rhinovirus sp. [11]) [µM],MIC (Human rhinovirus sp. [12]) [µM],MIC (Human rhinovirus sp. [13]) [µM],MIC (Human rhinovirus sp. [15]) [µM],Mean activity (Human rhinovirus sp. [16]) [µM],logP [18],MIC (Human rhinovirus sp. [21]) [µM],further results
Cc1cc(-c2nnn(C)n2)cc(C)c1OCCCCCc1ccncc1,0.26,0.11,2.13,0.51,0.36,0.07,0.43,0.2,0.68,0.08,0.36,0.27,,,,MIC (Human rhinovirus sp. [3]): inactive; MIC (Human rhinovirus sp. [5]): inactive; MIC (Human rhinovirus sp. [14]): inactive
Cc1cc(CCCOc2c(C)cc(-c3nnn(C)n3)cc2C)on1,,,,,,,,,,,,,0.73,,,
Cc1cc(-c2nnn(C)n2)cc(C)c1OCCCc1cccnc1,,,,,,,,,,,,,,,,Mean activity (Human rhinovirus sp. [17]): inactive
Cc1noc(-c2cc(C)c(OCCCc3cccnc3)c(C)c2)n1,,,,,,,,,,,,,,3.3,,Mean activity (Human rhinovirus sp. [19]): inactive
Cc1cc(CCCOc2c(C)cc(-c3nc(C)no3)cc2C)on1,,,,,,,,,,,,,,3.2,,Mean activity (Human rhinovirus sp. [20]): 0.22 µM
Cc1cc(-c2nnn(C)n2)cc(C)c1OCCCCCc1ccccn1,0.34,0.08,1.91,1.19,0.36,0.06,,0.21,0.66,0.05,0.25,0.11,,,3.84,MIC (Human rhinovirus sp. [3]): inactive; MIC (Human rhinovirus sp. [5]): inactive; MIC (Human rhinovirus sp. [22]): inactive
Cc1cc(CCCCCOc2c(C)cc(-c3nnn(C)n3)cc2C)on1,0.04,0.31,0.77,0.35,0.23,0.04,0.84,0.08,0.42,0.04,0.11,0.1,,,0.62,MIC (Human rhinovirus sp. [23]): 0.98 µM; MIC (Human rhinovirus sp. [24]): 1.43 µM
Cc1ccc(CCCOc2c(C)cc(-c3nc(C)no3)cc2C)cn1,,,,,,,,,,,,,0.25,3.8,,
Cc1cc(-c2nnn(C)n2)cc(C)c1OCCCCCc1cccnc1,0.2,0.04,1.25,0.37,2.28,0.03,1.08,0.17,0.28,0.03,0.17,0.1,,,1.05,MIC (Human rhinovirus sp. [23]): 0.82 µM; MIC (Human rhinovirus sp. [24]): 2.16 µM
Cc1ccc(CCCOc2c(C)cc(-c3nnn(C)n3)cc2C)cn1,,,,,,,,,,,,,0.54,,,
